Experimental data: patent US20230310436A1, “COMBINATION THERAPY FOR CANCERS WITH KRAS MUTATION” (COTHERA BIOSCIENCE, INC., priority 2019, published 2023)

Columns and labels:
Format in all cases: cell-based
[1] = test system: KRAS^G12C-NSCLC H358 cell line; assay: Ex vivo Edu proliferation test (MI, GI %), H358; conditions: Table 2a; 7 days; uM: osimertinib 0.5, afatinib 0.2, cobimetinib 0.4, trametinib 0.02, palbociclib 0.15, ribociclib 5
Protocol: (§1) For ex vivo drug testing, the cells were exposed to a combination of drugs or single drugs for 4 days or 7 days. Following exposure with drug, 1,000-5,000 cells were labeled with 5-ethynyl-2′-deoxyuridine (Edu) to assess the tumor cell proliferation rates. The labeling lasted 24 hours in the presence of drug exposure. In the control group, epithelial tumor cells received no drug exposure with media change (with 0.1% DMSO), but were similarly labeled with Edu. The labeled cells were fixed and blocked with 3% BSA and 0.5% Triton X-100 for 2 hours at room temperature, followed by staining with Hoechst 33342 and EpCAM antibody (1:4000) in PBS solution containing 0.5% Triton X-100 overnight at 4° C. Subsequently, the cells were rinsed with PBST then incubated with Alexa Fluor® 647 conjugated goat-antimouse secondary antibody for 30 minutes at room temperature.
(§2) The incorporated Edu was detected by Click-iT reaction where fixed cells were incubated with a reaction mixture containing 1× Click-iT Edu reaction buffer, CuSO4, and azide-conjugated Alexa Fluor dye in the dark. The stained cells were washed with PBS two times before image acquisition and analysis.
(§3) For image acquisition and analysis, the stained tumor cells were imaged by a high-content screening (HCS) platform (Thermo Scientific CellomicsArrayScanXTi HCS reader). The 10× objective was used to collect images. Twenty-five fields were imaged for each well for the analysis. From the images three fluorescent signals were obtained from the HCS reader. Blue fluorescent signals recorded nucleus signals stained with Hoechst 33342, green fluorescent signal detected the Edu incorporated in newly synthesized DNA, and red fluorescent signal detected the EpCAM positive epithelial cells population.
(§4) The MI (Maximum Inhibition Index) was calculated using the EpCAM and Edu positive readout (Tables 1-4). MI=Edu positive cells in control/Edu positive cells in treatment. MI4 indicates an MI value after 4 days of treatment and MI7 indicates an MI values after 7 days of treatment. The MI and growth inhibition rate (GI %) values for KRAS^G12A-NSCLC (H1573 and H2009), KRAS^G12C-NSCLC (H358, H23 and H2030), KRAS^G12V-NSCLC (H2291 and H2444) and KRAS^G12D-NSCLC (H1588 and SK-LU-1) cell lines are shown in Tables 1-4, respectively. GI % is calculated as GI %=(1−1/MI)*100%.

[2] = test system: KRAS^G12C-NSCLC H2030 cell line; assay: Ex vivo Edu proliferation test (MI, GI %), H2030; conditions: Table 2a; 7 days; uM: osimertinib 0.5, afatinib 0.2, cobimetinib 0.4, trametinib 0.02, palbociclib 0.15, ribociclib 5
Protocol: as §1, §2, §3, §4

[3] = test system: KRAS^G12C-NSCLC H23 cell line; assay: Ex vivo Edu proliferation test (MI, GI %), H23; conditions: Table 2a; 7 days; uM: osimertinib 0.5, afatinib 0.2, cobimetinib 0.4, trametinib 0.02, palbociclib 0.15, ribociclib 5
Protocol: as §1, §2, §3, §4

[4] = test system: KRAS^G12V-NSCLC H2444 cell line; assay: Ex vivo Edu proliferation test (MI, GI %), H2444; conditions: Table 3; 4 days; uM: osimertinib 0.5, afatinib 0.2, trametinib 0.02, TAK-733 0.18, palbociclib 0.15, ribociclib 5
Protocol: as §1, §2, §3, §4

[5] = test system: KRAS^G12D-NSCLC SK-LU-1 cell line; assay: Ex vivo Edu proliferation test (MI, GI %), SK-LU-1; conditions: Table 4; 4 days; uM: osimertinib 0.5, afatinib 0.2, cobimetinib 0.4, trametinib 0.02, TAK-733 0.18, palbociclib 0.15, ribociclib 5
Protocol: as §1, §2, §3, §4

[6] = test system: KRAS^G12V-NSCLC H2291 cell line; assay: Ex vivo Edu proliferation test (MI, GI %), H2291; conditions: Table 3; 7 days; uM: osimertinib 0.5, afatinib 0.2, trametinib 0.02, TAK-733 0.18, palbociclib 0.15, ribociclib 5
Protocol: as §1, §2, §3, §4

[7] = test system: KRAS^G12D-NSCLC H1588 cell line; assay: Ex vivo Edu proliferation test (MI, GI %), H1588; conditions: Table 4; 4 days; uM: osimertinib 0.5, afatinib 0.2, cobimetinib 0.4, trametinib 0.02, TAK-733 0.18, palbociclib 0.15, ribociclib 5
Protocol: as §1, §2, §3, §4

[8] = test system: KRAS^G12A-NSCLC H1573 cell line; assay: Ex vivo Edu proliferation test (MI, GI %), H1573; conditions: Table 1; 4 days; uM: osimertinib 0.5, afatinib 0.2, cobimetinib 0.4, trametinib 0.02, TAK-733 0.18, palbociclib 0.15, ribociclib 5
Protocol: as §1, §2, §3
The MI (Maximum Inhibition Index) was calculated using the EpCAM and Edu positive readout (Tables 1-4). MI=Edu positive cells in control/Edu positive cells in treatment. MI4 indicates an MI value after 4 days of treatment and MI7 indicates an MI values after 7 days of treatment. […] GI % is calculated as GI %=(1−1/MI)*100%.

[9] = test system: KRAS^G12A-NSCLC H2009 cell line; assay: Ex vivo Edu proliferation test (MI, GI %), H2009; conditions: Table 1; 4 days; uM: osimertinib 0.5, afatinib 0.2, cobimetinib 0.4, trametinib 0.02, TAK-733 0.18, palbociclib 0.15, ribociclib 5
Protocol: as §1, §2, §3, §4

CN(C)C/C=C/C(=O)Nc1cc2c(Nc3ccc(F)c(Cl)c3)ncnc2cc1O[C@H]1CCOC1 [Afatinib, afatinib]
GI % (Growth Inhibition Rate), H358 [1]: 22.84%
MI 7 (Maximum Inhibition Index), H358 [1]: 1.30
GI % (Growth Inhibition Rate), H2030 [2]: 55.33%
MI 7 (Maximum Inhibition Index), H2030 [2]: 2.23
GI % (Growth Inhibition Rate), H23 [3]: 16.09%
MI 7 (Maximum Inhibition Index), H23 [3]: 0.87
GI % (Growth Inhibition Rate), H2444 [4]: 44.30%
MI 4 (Maximum Inhibition Index), H2444 [4]: 1.80
GI % (Growth Inhibition Rate), SK-LU-1 [5]: 8.65%
MI 4 (Maximum Inhibition Index), SK-LU-1 [5]: 1.09
GI % (Growth Inhibition Rate), H2291 [6]: 26.00%
MI 7 (Maximum Inhibition Index), H2291 [6]: 1.35
GI % (Growth Inhibition Rate), H1588 [7]: 43.02%
MI 4 (Maximum Inhibition Index), H1588 [7]: 1.75
GI % (Growth Inhibition Rate), H1573 [8]: 42.36%
MI 4 (Maximum Inhibition Index), H1573 [8]: 1.73
GI % (Growth Inhibition Rate), H2009 [9]: 14.83%
MI 4 (Maximum Inhibition Index), H2009 [9]: 1.17

O=C(c1ccc(F)c(F)c1Nc1ccc(I)cc1F)N1CC(O)([C@@H]2CCCCN2)C1 [Cobimetinib, cobimetinib]
GI % (Growth Inhibition Rate), H358 [1]: 97.48%
MI 7 (Maximum Inhibition Index), H358 [1]: 39.68
GI % (Growth Inhibition Rate), H2030 [2]: 92.44%
MI 7 (Maximum Inhibition Index), H2030 [2]: 13.21
GI % (Growth Inhibition Rate), H23 [3]: 75.83%
MI 7 (Maximum Inhibition Index), H23 [3]: 4.25
GI % (Growth Inhibition Rate), SK-LU-1 [5]: 64.82%
MI 4 (Maximum Inhibition Index), SK-LU-1 [5]: 2.84
GI % (Growth Inhibition Rate), H1588 [7]: 48.38%
MI 4 (Maximum Inhibition Index), H1588 [7]: 1.94
GI % (Growth Inhibition Rate), H1573 [8]: 96.36%
MI 4 (Maximum Inhibition Index), H1573 [8]: 27.49
GI % (Growth Inhibition Rate), H2009 [9]: 67.99%
MI 4 (Maximum Inhibition Index), H2009 [9]: 3.12

C=CC(=O)Nc1cc(Nc2nccc(-c3cn(C)c4ccccc34)n2)c(OC)cc1N(C)CCN(C)C [Osimertinib, osimertinib]
GI % (Growth Inhibition Rate), H358 [1]: 22.86%
MI 7 (Maximum Inhibition Index), H358 [1]: 1.30
GI % (Growth Inhibition Rate), H2030 [2]: 57.39%
MI 7 (Maximum Inhibition Index), H2030 [2]: 2.35
GI % (Growth Inhibition Rate), H23 [3]: 13.11%
MI 7 (Maximum Inhibition Index), H23 [3]: 0.89
GI % (Growth Inhibition Rate), H2444 [4]: 66.51%
MI 4 (Maximum Inhibition Index), H2444 [4]: 2.99
GI % (Growth Inhibition Rate), SK-LU-1 [5]: 35.73%
MI 4 (Maximum Inhibition Index), SK-LU-1 [5]: 1.56
GI % (Growth Inhibition Rate), H2291 [6]: 21.19%
MI 7 (Maximum Inhibition Index), H2291 [6]: 1.30
GI % (Growth Inhibition Rate), H1588 [7]: 55.11%
MI 4 (Maximum Inhibition Index), H1588 [7]: 2.23
GI % (Growth Inhibition Rate), H1573 [8]: 67.71%
MI 4 (Maximum Inhibition Index), H1573 [8]: 3.10
GI % (Growth Inhibition Rate), H2009 [9]: 35.30%
MI 4 (Maximum Inhibition Index), H2009 [9]: 1.55

CC(=O)c1c(C)c2cnc(Nc3ccc(N4CCNCC4)cn3)nc2n(C2CCCC2)c1=O [Palbociclib, palbociclib]
GI % (Growth Inhibition Rate), H358 [1]: 60.31%
MI 7 (Maximum Inhibition Index), H358 [1]: 2.53
GI % (Growth Inhibition Rate), H2030 [2]: 52.39%
MI 7 (Maximum Inhibition Index), H2030 [2]: 2.10
GI % (Growth Inhibition Rate), H23 [3]: 41.73%
MI 7 (Maximum Inhibition Index), H23 [3]: 1.72
GI % (Growth Inhibition Rate), H2444 [4]: 59.59%
MI 4 (Maximum Inhibition Index), H2444 [4]: 2.47
GI % (Growth Inhibition Rate), SK-LU-1 [5]: 73.45%
MI 4 (Maximum Inhibition Index), SK-LU-1 [5]: 3.77
GI % (Growth Inhibition Rate), H2291 [6]: 81.25%
MI 7 (Maximum Inhibition Index), H2291 [6]: 5.36
GI % (Growth Inhibition Rate), H1588 [7]: 53.52%
MI 4 (Maximum Inhibition Index), H1588 [7]: 2.15
GI % (Growth Inhibition Rate), H1573 [8]: 92.17%
MI 4 (Maximum Inhibition Index), H1573 [8]: 12.77
GI % (Growth Inhibition Rate), H2009 [9]: 8.82%
MI 4 (Maximum Inhibition Index), H2009 [9]: 1.10

CN(C)C(=O)c1cc2cnc(Nc3ccc(N4CCNCC4)cn3)nc2n1C1CCCC1 [Ribociclib, ribociclib]
GI % (Growth Inhibition Rate), H358 [1]: 95.43%
MI 7 (Maximum Inhibition Index), H358 [1]: 21.19
GI % (Growth Inhibition Rate), H2030 [2]: 84.67%
MI 7 (Maximum Inhibition Index), H2030 [2]: 6.57
GI % (Growth Inhibition Rate), H23 [3]: 74.57%
MI 7 (Maximum Inhibition Index), H23 [3]: 3.96
GI % (Growth Inhibition Rate), H2444 [4]: 74.54%
MI 4 (Maximum Inhibition Index), H2444 [4]: 3.93
GI % (Growth Inhibition Rate), SK-LU-1 [5]: 91.58%
MI 4 (Maximum Inhibition Index), SK-LU-1 [5]: 11.88
GI % (Growth Inhibition Rate), H2291 [6]: 98.65%
MI 7 (Maximum Inhibition Index), H2291 [6]: 72.98
GI % (Growth Inhibition Rate), H1588 [7]: 60.57%
MI 4 (Maximum Inhibition Index), H1588 [7]: 2.54
GI % (Growth Inhibition Rate), H1573 [8]: 99.00%
MI 4 (Maximum Inhibition Index), H1573 [8]: 100.43
GI % (Growth Inhibition Rate), H2009 [9]: 10.09%
MI 4 (Maximum Inhibition Index), H2009 [9]: 1.11

Cn1c(=O)c(F)c(Nc2ccc(I)cc2F)c2c(=O)n(C[C@@H](O)CO)cnc21 [TAK-733]
GI % (Growth Inhibition Rate), H2444 [4]: 99.01%
MI 4 (Maximum Inhibition Index), H2444 [4]: 100.76
GI % (Growth Inhibition Rate), SK-LU-1 [5]: 77.44%
MI 4 (Maximum Inhibition Index), SK-LU-1 [5]: 4.43
GI % (Growth Inhibition Rate), H2291 [6]: 98.27%
MI 7 (Maximum Inhibition Index), H2291 [6]: 57.57
GI % (Growth Inhibition Rate), H1588 [7]: 36.93%
MI 4 (Maximum Inhibition Index), H1588 [7]: 1.59
GI % (Growth Inhibition Rate), H1573 [8]: 89.62%
MI 4 (Maximum Inhibition Index), H1573 [8]: 9.64
GI % (Growth Inhibition Rate), H2009 [9]: 62.18%
MI 4 (Maximum Inhibition Index), H2009 [9]: 2.64

CC(=O)Nc1cccc(-n2c(=O)n(C3CC3)c(=O)c3c(Nc4ccc(I)cc4F)n(C)c(=O)c(C)c32)c1 [Trametinib, trametinib]
GI % (Growth Inhibition Rate), H358 [1]: 20.76%
MI 7 (Maximum Inhibition Index), H358 [1]: 1.26
GI % (Growth Inhibition Rate), H2030 [2]: 64.45%
MI 7 (Maximum Inhibition Index), H2030 [2]: 2.81
GI % (Growth Inhibition Rate), H23 [3]: 1.20%
MI 7 (Maximum Inhibition Index), H23 [3]: 1.01
GI % (Growth Inhibition Rate), H2444 [4]: 87.22%
MI 4 (Maximum Inhibition Index), H2444 [4]: 7.82
GI % (Growth Inhibition Rate), SK-LU-1 [5]: 47.99%
MI 4 (Maximum Inhibition Index), SK-LU-1 [5]: 1.92
GI % (Growth Inhibition Rate), H2291 [6]: 75.62%
MI 7 (Maximum Inhibition Index), H2291 [6]: 4.11
GI % (Growth Inhibition Rate), H1588 [7]: 45.63%
MI 4 (Maximum Inhibition Index), H1588 [7]: 1.84
GI % (Growth Inhibition Rate), H1573 [8]: 87.80%
MI 4 (Maximum Inhibition Index), H1573 [8]: 8.20
GI % (Growth Inhibition Rate), H2009 [9]: 65.93%
MI 4 (Maximum Inhibition Index), H2009 [9]: 2.93
